Results as given in patent US7795295B2, “Small molecule inhibition of PDZ-domain interaction” (The Regents of the University of California, priority 2004, dated 2010).

Tests used:
H460 cells = assay: Apoptosis by Annexin V FITC flow cytometry, H460; type: cell-based, human; details: 10 μM for 3 days
Procedure: (§1) Compound 1 and other compounds of Tables 1A and 1B were similarly tested for apoptotic effects to represent the inhibitory effects of compounds on interaction between the PDZ domain of the Dishevelled (Dvl) protein and the Fz protein (Wnt receptor). Cell lines H460 and LOX were utilized, with the test compound being applied at 10 μM for 3 days. Cultured cells treated with the test compounds in the culture media were harvested by trypsinization and stained using an Annexin V FITC Apoptosis Detection kit (Oncogene Science, Cambridge, Mass.), according to the manufacturer's protocol. Stained cells were immediately analyzed by flow cytometry (FACScan; Becton-Dickinson, Franklin Lake, N.J.).

LOX cells = assay: Apoptosis by Annexin V FITC flow cytometry, LOX; type: cell-based, human; details: 10 μM for 3 days
Procedure: as §1

[1] = Assay 2, library 2, control 10.24
[2] = Assay 2, library 2, control 9.67
[3] = Assay 3, library 3, control 7.59
[4] = Assay 3, library 3, control 8.81
[5] = Assay 1, library 1, control 9.22
[6] = Assay 1, library 1, control 10.85

Structure (SMILES)	apoptosis, % H460 (H460 cells; [1]) [%]	apoptosis, % LOX (LOX cells; [2]) [%]	apoptosis, % H460 (H460 cells; [3]) [%]	apoptosis, % LOX (LOX cells; [4]) [%]	apoptosis, % H460 (H460 cells; [5]) [%]	apoptosis, % LOX (LOX cells; [6]) [%]
CCCCC(O)c1[nH]c2cc(C)c(C(=O)O)cc2c1Cc1ccccc1 (centres unmarked) [Compound 14]	24.26	11.88	–	–	–	–
Cc1cc2[nH]c(C(O)CC3CCCC3)c(-c3ccccc3)c2cc1C(=O)O (centres unmarked) [Compound 21]	–	–	31.22	19.99	–	–
CCC(C)C(=O)c1[nH]c2cc(C)c(C(=O)O)cc2c1CCc1ccccc1 (centres unmarked) [Compound 28]	–	–	–	–	58.76	38.53
Cc1cc2[nH]c(C(=O)CCc3ccccc3)c(CCc3ccccc3)c2cc1C(=O)O [Compound 34]	–	–	–	–	76.59	44.73
CCCCC(=O)c1[nH]c2cc(C)c(C(=O)O)cc2c1CCCc1ccccc1 [Compound 40]	23.93	16.5	–	–	–	–
CCCCC(=O)c1[nH]c2cc(C)c(C(=O)O)cc2c1CC(C)C [Compound 36]	41.48	13.51	–	–	–	–
Cc1cc2[nH]c(C(=O)CC(C)C)c(CCc3ccccc3)c2cc1C(=O)O [Compound 27]	–	–	–	–	16.91	18.5
Cc1cc2[nH]c(C(O)C3CCCCC3)c(-c3ccccc3)c2cc1C(=O)O (centres unmarked) [Compound 22]	–	–	16.22	15.47	–	–
CCCCC(O)c1[nH]c2cc(C)c(C(=O)O)cc2c1C1CCCCC1 (centres unmarked) [Compound 12]	28.8	15.83	–	–	–	–
Cc1cc2[nH]c(C(=O)CC3CCCC3)c(CCc3ccccc3)c2cc1C(=O)O [Compound 29]	–	–	–	–	64.1	74.11
CCCCC(O)c1[nH]c2cc(C)c(C(=O)O)cc2c1CCCc1ccccc1 (centres unmarked) [Compound 15]	37.4	17.57	–	–	–	–
Cc1cc2[nH]c(C(=O)C3CCCCC3)c(CCc3ccccc3)c2cc1C(=O)O [Compound 30]	–	–	–	–	78.07	55.76
Cc1cc2[nH]c(C(=O)Cc3ccccc3)c(CCc3ccccc3)c2cc1C(=O)O [Compound 33]	–	–	–	–	12.66	15.03
Cc1cc2[nH]c(C(O)C(C)C)c(-c3ccccc3)c2cc1C(=O)O (centres unmarked) [Compound 20]	–	–	28.9	11.77	–	–
Cc1cc2[nH]c(C(O)CC(C)(C)C)c(-c3ccccc3)c2cc1C(=O)O (centres unmarked) [Compound 23]	–	–	12.09	11.34	–	–
CCC(C)C(O)c1[nH]c2cc(C)c(C(=O)O)cc2c1CCc1ccccc1 (centres unmarked) [Compound 3]	–	–	–	–	79.9	56.29
CCCCC(=O)c1[nH]c2cc(C)c(C(=O)O)cc2c1-c1ccccc1 [Compound 38]	51.61	13.58	–	–	–	–
CCCCC(O)c1[nH]c2cc(C)c(C(=O)O)cc2c1CCCC(=O)O (centres unmarked) [Compound 17]	18.93	15.62	–	–	–	–
CCCCC(O)c1[nH]c2cc(C)c(C(=O)O)cc2c1CCCO (centres unmarked) [Compound 16]	15.7	14.5	–	–	–	–
CCC(C)C(=O)c1[nH]c2cc(C)c(C(=O)O)cc2c1-c1ccccc1 (centres unmarked) [Compound 44]	–	–	37.38	54.13	–	–
Cc1cc2[nH]c(C(O)CC3CCCC3)c(CCc3ccccc3)c2cc1C(=O)O (centres unmarked) [Compound 4]	–	–	–	–	36.41	32.52
CCC(C)C(O)c1[nH]c2cc(C)c(C(=O)O)cc2c1-c1ccccc1 (centres unmarked) [Compound 19]	–	–	44.15	47.62	–	–
Cc1cc2[nH]c(C(=O)C(C)C)c(-c3ccccc3)c2cc1C(=O)O [Compound 45]	–	–	96.96	86.71	–	–

Structure (SMILES)	apoptosis, % H460 (H460 cells; [1]) [%]	apoptosis, % LOX (LOX cells; [2]) [%]	apoptosis, % H460 (H460 cells; [3]) [%]	apoptosis, % LOX (LOX cells; [4]) [%]	apoptosis, % H460 (H460 cells; [5]) [%]	apoptosis, % LOX (LOX cells; [6]) [%]
Cc1cc2[nH]c(C(O)CCCC(=O)O)c(CCc3ccccc3)c2cc1C(=O)O (centres unmarked) [Compound 6]	–	–	–	–	8.62	9.22
CCCCC(=O)c1[nH]c2cc(C)c(C(=O)O)cc2c1Cc1ccccc1 [Compound 39]	42.9	29.35	–	–	–	–
Cc1cc2[nH]c(C(O)C3CCCCC3)c(CCc3ccccc3)c2cc1C(=O)O (centres unmarked) [Compound 5]	–	–	–	–	24.39	27.15
CCCCC(=O)c1[nH]c2cc(C)c(C(=O)O)cc2c1CCCO [Compound 41]	19.96	12.69	–	–	–	–
Cc1cc2[nH]c(C(=O)CCCC(=O)O)c(CCc3ccccc3)c2cc1C(=O)O [Compound 31]	–	–	–	–	9.07	12.06
CCCCC(=O)c1[nH]c2cc(C)c(C(=O)OC)cc2c1CCc1ccccc1 [Compound 7]	–	–	–	–	13.92	17.96
CCCCC(O)c1[nH]c2cc(C)c(C(=O)O)cc2c1CC(C)C (centres unmarked) [Compound 11]	24.48	14.83	–	–	–	–
Cc1cc2[nH]c(C(=O)CC3CCCC3)c(-c3ccccc3)c2cc1C(=O)O [Compound 46]	–	–	39.06	38.6	–	–
Cc1cc2[nH]c(C(=O)CC(C)C)c(-c3ccccc3)c2cc1C(=O)O [Compound 43]	–	–	34.22	20.24	–	–
CCCCCc1c(C(O)CCCC)[nH]c2cc(C)c(C(=O)O)cc12 (centres unmarked) [Compound 10]	39.64	19.08	–	–	–	–
CCCCC(=O)c1[nH]c2cc(C)c(C(=O)O)cc2c1CCCC(=O)O [Compound 42]	49.41	15.22	–	–	–	–
Cc1cc2[nH]c(C(=O)c3ccccc3)c(CCc3ccccc3)c2cc1C(=O)O [Compound 32]	–	–	–	–	21.13	15.36
CCCCCc1c(C(=O)CCCC)[nH]c2cc(C)c(C(=O)O)cc12 [Compound 35]	34.73	23.23	–	–	–	–
CCCCC(=O)c1[nH]c2cc(C)c(C(=O)O)cc2c1C1CCCCC1 [Compound 37]	45.05	7.49	–	–	–	–
Cc1cc2[nH]c(C(O)CC(C)C)c(-c3ccccc3)c2cc1C(=O)O (centres unmarked) [Compound 18]	–	–	21.11	9.53	–	–
CCCCC(=O)c1[nH]c2cc(C)c(C(=O)O)cc2c1CCc1ccccc1 [Compound 26]	–	–	–	–	16.13	16.86
Cc1cc2[nH]c(C(=O)CCc3ccccc3)c(-c3ccccc3)c2cc1C(=O)O [Compound 49]	–	–	82.53	96.34	–	–
Cc1cc2[nH]c(C(=O)CC(C)(C)C)c(-c3ccccc3)c2cc1C(=O)O [Compound 48]	–	–	24.48	15.14	–	–
Cc1cc2[nH]c(C(=O)C3CCCCC3)c(-c3ccccc3)c2cc1C(=O)O [Compound 47]	–	–	49.77	73.02	–	–
Cc1cc2[nH]c(C(O)CCc3ccccc3)c(-c3ccccc3)c2cc1C(=O)O (centres unmarked) [Compound 24]	–	–	26.58	26.56	–	–
Cc1cc2[nH]c(C(O)CC(C)C)c(CCc3ccccc3)c2cc1C(=O)O (centres unmarked) [Compound 2]	–	–	–	–	34.21	36.32
Cc1cc2[nH]c(C(=O)CCCc3ccccc3)c(-c3ccccc3)c2cc1C(=O)O [Compound 50]	–	–	41.75	72.47	–	–
CCCCC(O)c1[nH]c2cc(C)c(C(=O)O)cc2c1-c1ccccc1 (centres unmarked) [Compound 13]	35.51	17.84	–	–	–	–
